Read-outs that look alike come from different tables or passages of the source.
What was measured:
[1] = tested on: dry eye syndrome model New Zealand rabbits; assay: Dry eye syndrome experiment (benzalkonium chloride model): tear film break-up time; format: in vivo, male New Zealand White rabbits; conditions: for tear film break-up time: compared with the model group
[2] = tested on: epidermal layer in rats; assay: Adverse reactions of continuous dermal administration: thickness of the epidermal layer (H&E sections); format: in vivo, SD rats; conditions: for thickness of the epidermal layer after continuous dermal administration: compared with the blank control group
Source text: Pharmacological Example 10: Experiment on Adverse Reactions of Continuous Dermal Administration in Rats
Animals: SD rats, SPF grade, with an equal number of males and females, weighing 230-250 g.
Animal grouping: After adaptive feeding, the rats were randomly divided into 4 groups. […] One day before administration, the backs of rats were shaved at an area of 5 cm × 6 cm. […] The rats in the blank control group were applied with the blank matrix of corresponding mass on their backs, twice a day for a consecutive week. Table 21. Animal grouping and drug administration dosages for the experiment on adverse reactions of continuous dermal administration in rats
To examine the effects of continuous administration of the test samples on the epidermal layer, the back skin tissues were stained with hematoxylin and eosin (H&E) (magnification ×40), and the thickness of the epidermal layer was quantitatively measured based on the H&E-stained sections.

[3] = biological target: T1, glucocorticoid receptor (GR) (Homo sapiens, UniProt P04150); assay: Assay for agonist activity on glucocorticoid receptor (luciferase reporter, HEK293 cells transfected with pBIND-GR plasmid); format: cell-based
T1 sequence (P04150 521-777): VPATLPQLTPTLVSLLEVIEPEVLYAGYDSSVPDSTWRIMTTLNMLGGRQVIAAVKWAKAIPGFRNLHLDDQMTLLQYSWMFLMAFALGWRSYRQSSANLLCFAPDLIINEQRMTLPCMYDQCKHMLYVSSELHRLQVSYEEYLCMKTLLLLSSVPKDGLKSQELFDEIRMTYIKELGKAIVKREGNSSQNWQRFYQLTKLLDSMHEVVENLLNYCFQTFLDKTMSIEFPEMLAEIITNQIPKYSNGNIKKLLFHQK
Summary of the method: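 Readout is luciferase luminescence, with EC50 derived by nonlinear fitting. Compounds ran at 10 concentrations (4-fold steps, top 10 µM, duplicate wells) on pBIND-GR-transfected HEK293 cells in phenol red-free DMEM plus 5% charcoal-stripped serum; 0.1% DMSO served as blank.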

[4] = tested on: intraocular pressure of guinea pigs; assay: Adverse reactions of continuous ocular administration: intraocular pressure; format: in vivo
Summary of the method: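 Guinea pigs (300-350 g, both sexes) dosed bilaterally with 5 mg/5 mL ophthalmic suspensions, saline as blank; intraocular pressure measured before dosing and on days 7, 14, 21 and 28.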

[5] = Stability in animal lung tissue homogenate, skin tissue homogenate and aqueous humor; format: in vitro ADME
[6] = tested on: dry eye syndrome model New Zealand rabbits; assay: Dry eye syndrome experiment (benzalkonium chloride model): tear secretion test with phenol red cotton threads; format: in vivo, male New Zealand White rabbits; conditions: for tear secretion: compared with the model group
Protocol: Positive control drug: Fluorometholone Eye Drops (specification: 5 mL/5 mg; Santen Pharmaceutical (CHINA) Co., Ltd.; Lot No.: 1FM6625) was used as the positive control drug and stored at room temperature protected from light until use.
Thirty male New Zealand White rabbits (conventional grade) were prepared. Six rabbits were randomly selected as the blank control group, and the remaining animals were administered 0.1% benzalkonium chloride to the left eye twice daily (morning and evening) , 10 µL/animal each time. On day 6 of modeling, tear secretion was measured using phenol red cotton threads to determine whether the model was successfully established. […] During the administration, all animals except the blank control group were administered 10 µL of 0.1% benzalkonium chloride to the left eye once daily to maintain dry eye symptoms..
• Test time: D3, D7, D15; • Test animals: All animals were tested before grouping; all enrolled surviving animals were tested after administration; • Test method: Tear secretion was measured using phenol red cotton threads. The tear secretion test paper was folded and placed at the middle and outer 1/3 of the rabbit palpebral conjunctival sac for 1 min. The test paper was then removed, observed, and recorded for its wetting length. The test was repeated 3 times, and the values were averaged.
The normality and homogeneity of variance were tested by Levene's test. If there was no statistical significance (P > 0.05), one-way analysis of variance (ANOVA) was used for statistical analysis. If ANOVA was statistically significant (P ≤ 0.05), LSD test (parametric method) was used for comparative analysis. If the variance was heterogeneous (P ≤ 0.05), Kruskal-Wallis test was used. If the Kruskal-Wallis test was statistically significant (P ≤ 0.05), Dunnett's test (nonparametric method) was used for comparative analysis.

[7] = tested on: uveitis model rats; assay: Anti-uveitis pharmacodynamic experiment (LPS model): ocular pathological score; format: in vivo, male SD rats; conditions: for ocular abnormalities / ocular pathological score: compared with the model group
[8] = Pharmacokinetic (PK) experiment in rats; format: in vivo, male SD rats; conditions: same experimental conditions
Summary of the method: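 Male SD rats dosed by body weight, oral group fasted overnight until 4 h post-dose. Jugular blood sampled 2 min–24 h into heparin; plasma analysed and PK parameters derived from concentration–time data.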

[9] = D3, 1 mg/mL, 50 µL/eye, 3 times a day for 14 days
[10] = D7, 1 mg/mL, 50 µL/eye, 3 times a day for 14 days
[11] = D15, 1 mg/mL, 50 µL/eye, 3 times a day for 14 days
[12] = GR agonist EC50 (nM), HEK293 cells transfected with pBIND-GR, luciferase signal
[13] = Nuclear receptor enzyme activity (nM) GR, EC50 of agonist activity, HEK293 reporter cells

## C[C@]12C=CC(=O)C=C1CC[C@H]1[C@@H]3C[C@H]4OC(c5ccc(CSC6CCOC6=O)cc5)O[C@@]4(C(=O)CO)[C@@]3(C)C[C@H](O)[C@@]12Cl (stereo partly drawn) [Compound 23, (6aS,6bR,7S,8aS,8bS,11aR,12aS,12bS)-6b-Chloro-7-hydroxy-8b-(2-hydroxyacetyl)-6a,8a-dimethyl-10-(4-(((2-oxotetrahydrofuran-3-yl)thio)methyl)phenyl)-1,2,6a,6b,7,8,8a,8b,11a,12,12a,12b-do decahydro-4H-naphtho[2',1':4,5]indeno[1,2-d][1,3]dioxol-4-one]
[1]; [9]
  Tear film break-up time (s) D3: 45.67 ± 13.69 s
[1]; [10]
  Tear film break-up time (s) D7: 49.33 ± 8.91" s
[1]; [11]
  Tear film break-up time (s) D15: 50.67 ± 10.41" s
[1]
  tear film break-up time: significantly increased the tear film break-up time on day 15
[2]; 100 mg cream on the back twice a day for a week (compounds 1 mg/g, Compound Dexamethasone Acetate 0.75 mg/g)
  Epidermal layer thickness (µm): 24.3 ± 1.1 µm
[2]
  thickness of the epidermal layer after continuous dermal administration: no significant changes in the thickness of the epidermal layer were observed
[3]; EC50 of agonist activity, HEK293 reporter cells, read-out: Nuclear receptor enzyme activity (nM) GR
  EC50: 0.21 nM
[3]; HEK293 cells transfected with pBIND-GR, luciferase signal, read-out: GR agonist EC50
  EC50: 0.21 nM
[4]
  intraocular pressure after continuous ocular administration: no abnormal intraocular pressure was observed
[4]; D0, before administration, 50 µL/eye (compounds and fluorometholone 1 mg/mL, loteprednol 5 mg/mL)
  Intraocular pressure of guinea pigs (mmHg) D0: 13.5 ± 0.6 mmHg
[4]; D7, 50 µL/eye (compounds and fluorometholone 1 mg/mL, loteprednol 5 mg/mL)
  Intraocular pressure of guinea pigs (mmHg) D7: 15.3 ± 1.7 mmHg
[4]; D14, 50 µL/eye (compounds and fluorometholone 1 mg/mL, loteprednol 5 mg/mL)
  Intraocular pressure of guinea pigs (mmHg) D14: 15.3 ± 1.5 mmHg
[4]; D21, 50 µL/eye (compounds and fluorometholone 1 mg/mL, loteprednol 5 mg/mL)
  Intraocular pressure of guinea pigs (mmHg) D21: 15.3 ± 2.2 mmHg
[4]; D28, 50 µL/eye (compounds and fluorometholone 1 mg/mL, loteprednol 5 mg/mL)
  Intraocular pressure of guinea pigs (mmHg) D28: 14.9 ± 1.6 mmHg
[5]
  stability in animal lung tissue homogenate, skin tissue homogenate, and aqueous humor: relatively stable
[6]; D0, 1 mg/mL, 50 µL/eye, 3 times a day for 14 days
  Wetting length of phenol red cotton threads (mm) D0: 28.24 ± 6.22 mm
[6]; [9]
  Wetting length of phenol red cotton threads (mm) D3: 29.4 ± 4.63 mm
[6]; [10]
  Wetting length of phenol red cotton threads (mm) D7: 31.88 ± 6.20 mm
[6]; [11]
  Wetting length of phenol red cotton threads (mm) D15: 36.05 ± 5.74" mm
[6]
  tear secretion: significantly increased the tear secretion on day 15
[7]; 1 mg/mL, 40 µL/eye, 3 times a day for 2 days
  Ocular pathological score: 7.0 ± 0.5
[7]
  ocular abnormalities / ocular pathological score: significantly improved the ocular abnormalities and reduced the ocular pathological score
[8]
  pharmacokinetic properties (plasma clearance rate, systemic exposure): pharmacokinetic properties similar to those of compound 8

## C[C@]12C=CC(=O)C=C1[C@@H](F)C[C@H]1[C@@H]3C[C@H]4OC(c5ccc(CSC6CCOC6=O)cc5)O[C@@]4(C(=O)OCF)[C@@]3(C)C[C@H](O)[C@@]12F (stereo partly drawn) [Compound 36, Fluoromethyl (2S,6aS,6bR,7S,8aS,8bS,11aR,12aS,12bS)-2,6b-difluoro-7-hydroxy-6a,8a-dimethyl-4-oxo-10-(4-( ((2-oxotetrahydrofuran-3-yl)thio)methyl)phenyl)-1,2,4,6a,6b,7,8,8a,11a,12,12a,12b-dodecahydro-8bH-naphtho[2',1':4,5]indeno[1,2-d][1,3]dioxole-8b-carboxylate]
[1]
  tear film break-up time: significantly increased the tear film break-up time
[2]
  thickness of the epidermal layer after continuous dermal administration: no significant changes in the thickness of the epidermal layer observed
[3]; [12]
  EC50: 0.12 nM
[3]; [13]
  EC50: 0.12 nM
[4]
  intraocular pressure after continuous ocular administration: no abnormal intraocular pressure observed
[5]
  stability in animal lung tissue homogenate, skin tissue homogenate, and aqueous humor: relatively stable
[6]
  tear secretion: significantly increased the tear secretion
[7]
  ocular abnormalities / ocular pathological score: significantly improved ocular abnormalities
[8]
  pharmacokinetic properties (plasma clearance rate, systemic exposure): pharmacokinetic properties similar to those of compound 8

## C[C@]12C=CC(=O)C=C1[C@@H](F)C[C@H]1[C@@H]3C[C@H]4OC(c5ccc(CSC6CCOC6=O)nc5)O[C@@]4(C(=O)CO)[C@@]3(C)C[C@H](O)[C@@]12F (stereo partly drawn) [Compound 46, (25,6aS,6bR,78,8a8,8bS,11aR,12a8,12b8S)-2,6b-Difluoro-7-hydroxy-8b-(2-hydroxyacetyl)-6a,8a-dimethyl-10-(6-(((2-oxotetrahydrofuran-3-yl)thio)methyl)pyridin-3-yl)-1,2,6a,6b,7,8,8a,8b,11a,12, 12a,12b-dodecahydro-4H-naphtho[2',1':4,5]indeno[1,2-d][1,3]dioxol-4-one]
[1]
  tear film break-up time: significantly increased the tear film break-up time
[2]
  thickness of the epidermal layer after continuous dermal administration: no significant changes in the thickness of the epidermal layer observed
[3]; [12]
  EC50: 0.23 nM
[4]
  intraocular pressure after continuous ocular administration: no abnormal intraocular pressure observed
[5]
  stability in animal lung tissue homogenate, skin tissue homogenate, and aqueous humor: relatively stable
[6]
  tear secretion: significantly increased the tear secretion
[7]
  ocular abnormalities / ocular pathological score: significantly improved ocular abnormalities
[8]
  pharmacokinetic properties (plasma clearance rate, systemic exposure): pharmacokinetic properties similar to those of compound 8

## C[C@]12C=CC(=O)C=C1CC[C@H]1[C@@H]3C[C@H]4OC(c5ccc(COC6CCOC6=O)cc5)O[C@@]4(C(=O)CO)[C@@]3(C)C[C@H](O)[C@@]12Cl (stereo partly drawn) [Compound 22, (6aS,6bR,7S,8aS,8bS,11aR,12aS,12bS)-6b-Chloro-7-hydroxy-8b-(2-hydroxyacetyl)-6a,8a-dimethyl-10-(4-(((2-oxotetrahydrofuran-3-yl)oxy)methyl)phenyl)-1,2,6a,6b,7,8,8a,8b,11a,12,12a,12b-do decahydro-4H-naphtho[2',1':4,5]indeno[1,2-d][1,3]dioxol-4-one]
[1]
  tear film break-up time: significantly increased the tear film break-up time
[2]
  thickness of the epidermal layer after continuous dermal administration: no significant changes in the thickness of the epidermal layer observed
[3]; [12]
  EC50: 0.55 nM
[3]; [13]
  EC50: 0.55 nM
[4]
  intraocular pressure after continuous ocular administration: no abnormal intraocular pressure observed
[5]
  stability in animal lung tissue homogenate, skin tissue homogenate, and aqueous humor: relatively stable
[6]
  tear secretion: significantly increased the tear secretion
[7]
  ocular abnormalities / ocular pathological score: significantly improved ocular abnormalities
[8]
  pharmacokinetic properties (plasma clearance rate, systemic exposure): pharmacokinetic properties similar to those of compound 8

## C[C@]12C=CC(=O)C=C1CC[C@H]1[C@@H]3C[C@H]4OC(c5ccc(CNC6COC(=O)C6)cc5)O[C@@]4(C(=O)CO)[C@@]3(C)C[C@H](O)[C@@]12F (stereo partly drawn) [Compound 21, (6aS,6bR,7S,8aS,8bS,11aR,12aS,12bS)-6b-Fluoro-7-hydroxy-8b-(2-hydroxyacetyl)-6a,8a-dimethyl-10-(4-(((5-oxotetrahydrofuran-3-yl)amino)methyl)phenyl)-1,2,6a,6b,7,8,8a,8b,11a,12,12a,12b-dodecahydro-4H-naphtho[2',1':4,5]indeno[1,2-d][1,3]dioxol-4-one]
[1]
  tear film break-up time: significantly increased the tear film break-up time
[2]
  thickness of the epidermal layer after continuous dermal administration: no significant changes in the thickness of the epidermal layer observed
[3]; [12]
  EC50: 0.63 nM
[4]
  intraocular pressure after continuous ocular administration: no abnormal intraocular pressure observed
[5]
  stability in animal lung tissue homogenate, skin tissue homogenate, and aqueous humor: relatively stable
[6]
  tear secretion: significantly increased the tear secretion
[7]
  ocular abnormalities / ocular pathological score: significantly improved ocular abnormalities
[8]
  pharmacokinetic properties (plasma clearance rate, systemic exposure): pharmacokinetic properties similar to those of compound 8
